# Entries after “also recorded” stand apart in the source; their conditions may differ.
# Key:
# Type in all cases: cell-based
# [1] = tested on: H23 non-small cell lung cancer cells; test: MTS cell density assay, synergy of VE-822 with Rucaparib (MacSynergy II); conditions: VE-822 + Rucaparib, 96 h, 95% confidence interval
# Procedure: (§1) H23 non-small cell lung cancer (a), U2OS osteosarcoma (b), HCT116 colorectal cancer (c), MCF7 breast cancer (d), HT144 melanoma (e), HT29 colorectal cancer (f), and PSN1 pancreatic cancer (g) cells were treated in triplicate with the indicated concentrations of VE-822 and Rucaparib for 96h. Cell density was measured by 3-(4,5-dimethylthiazol-2-yl)-5-(3-carboxymethoxyphenyl)-2-(4-sulfophenyl)-2H-tetrazolium (MTS) assay, and synergy was analyzed at the 95% confidence interval with MacSynergy II software. A range of synergy was observed from strong (a) to negligible (g).
# (§2) H23 non-small cell lung cancer (a) and HFL1 normal lung (b) cells were treated in triplicate with the indicated concentrations of VE-822 and Rucaparib for 96h. Cell density was measured by 3-(4,5-dimethylthiazol-2-yl)-5-(3-carboxymethoxyphenyl)-2-(4-sulfophenyl)-2H-tetrazolium (MTS) assay, and synergy was analyzed at the 95% confidence interval with MacSynergy II software.
# FIG. 4. […] The synergy plots can be analyzed using methods described in Reaper et al, “Selective Killing of ATM- or p53-deficient cancer cells through inhibition of ATR”, Nat. […]
# FIG. 5. […] The synergy plots can be analyzed using methods described in Reaper et al, “Selective Killing of ATM- or p53-deficient cancer cells through inhibition of ATR”, Nat. […]
# HFL1 normal lung cells = test: as above; conditions: VE-822 + Rucaparib, 96 h, 95% confidence interval
# Procedure: as §2
# FIG. 5. H23 non-small cell lung cancer (a) and HFL1 normal lung (b) cells were treated in triplicate with the indicated concentrations of VE-822 and Rucaparib for 96 h, cell density was measured by 3-(4,5-dimethylthiazol-2-yl)-5-(3-carboxymethoxyphenyl)-2-(4-sulfophenyl)-2H-tetrazolium (MTS) assay and synergy was analyzed at the 95% confidence interval with MacSynergy II software. The synergy plots can be analyzed using methods described in Reaper et al, “Selective Killing of ATM- or p53-deficient cancer cells through inhibition of ATR”, Nat. Chem. Bio. 2011, Apr. 13; 9 (7):428-430.
# [2] = tested on: H23 non-small cell lung cancer and HFL1 normal lung cells; test: MTS cell density assay, triple combination of VE-822, Rucaparib and ionizing radiation; conditions: H23 versus HFL1 cells, with 2 Gy IR, 96 h, MacSynergy II modified for triple combination
# Procedure: (§3) In FIG. 6A, H23 non-small cell lung cancer (a) and HFL1 normal lung (b) cells were treated in triplicate with the indicated concentrations of VE-822 and Rucaparib together with 2 gray (Gy) of IR. Cell density was measured after 96h by 3-(4,5-dimethylthiazol-2-yl)-5-(3-carboxymethoxyphenyl)-2-(4-sulfophenyl)-2H-tetrazolium (MTS) assay, and synergy was analyzed at the 95% confidence interval with MacSynergy II software modified for triple combination studies (Nguyen et al, PLOS One 5:9332). In FIG. 6B, H23 non-small cell lung cancer (a) and HFL1 normal lung (b) cells were treated in triplicate with the indicated concentrations of VE-822 and Rucaparib together with 80nM cisplatin. Cell density was measured after 96h by 3-(4,5-dimethylthiazol-2-yl)-5-(3-carboxymethoxyphenyl)-2-(4-sulfophenyl)-2H-tetrazolium (MTS) assay, and synergy was analyzed at the 95% confidence interval with MacSynergy II software modified for triple combination studies (Nguyen et al, PLOS One 5:9332).
# FIG. 6a. […] The synergy plots can be analyzed using methods described in Reaper et al, “Selective Killing of ATM- or p53-deficient cancer cells through inhibition of ATR”, Nat. […]
# [3] = tested on: PSN1 pancreatic cancer cells; test: MTS cell density assay, synergy of VE-822 with Rucaparib (MacSynergy II); conditions: VE-822 + Rucaparib, 96 h, 95% confidence interval
# Procedure: as §1
# (§4) FIG. 4. H23 non-small cell lung cancer (a), U2OS osteosarcoma (b), HCT116 colorectal cancer (c), MCF7 breast cancer (d), HT144 melanoma (e), HT29 colorectal cancer (f) and PSN1 pancreatic cancer (g) cells were treated in triplicate with the indicated concentrations of VE-822 and Rucaparib for 96 h, cell density was measured by 3-(4,5-dimethylthiazol-2-yl)-5-(3-carboxymethoxyphenyl)-2-(4-sulfophenyl)-2H-tetrazolium (MTS) assay and synergy was analyzed at the 95% confidence interval with MacSynergy II software. A range of synergy was observed from strong (a) to negligible (g). The synergy plots can be analyzed using methods described in Reaper et al, “Selective Killing of ATM- or p53-deficient cancer cells through inhibition of ATR”, Nat. Chem. Bio. 2011, Apr. 13; 9 (7):428-430.
# [4] = tested on: H23 non-small cell lung cancer and HFL1 normal lung cells; test: MTS cell density assay, triple combination of VE-822, Rucaparib and cisplatin; conditions: H23 versus HFL1 cells, with 80 nM cisplatin, 96 h, MacSynergy II modified for triple combination
# Procedure: as §3
# FIG. 6b. […] The synergy plots can be analyzed using methods described in Reaper et al, “Selective Killing of ATM- or p53-deficient cancer cells through inhibition of ATR”, Nat. […]
# [5] = tested on: H23, U2OS, HCT116, MCF7, HT144, HT29 and PSN1 cancer cells; test: MTS cell density assay, synergy of VE-822 with Rucaparib across a cancer cell line panel; conditions: seven cancer cell lines, VE-822 + Rucaparib, 96 h, in vitro
# Procedure: as §1, §4
smiles,measurement,setting,value
CNCc1ccc(-c2cc(-c3nc(-c4ccc(S(=O)(=O)C(C)C)cc4)cnc3N)on2)cc1 [VE-822],synergy with the PARP inhibitor Rucaparib,[1],strong; also recorded: synergizes with the PARP inhibitor Rucaparib in cancer
same,synergy with the PARP inhibitor Rucaparib,HFL1 normal lung cells,not normal cells
same,"synergy of the combination of VE-822, Rucaparib and ionizing radiation",[2],cancer-selective synergistic effects
same,synergy with the PARP inhibitor Rucaparib,[3],negligible
same,"synergy of the combination of VE-822, Rucaparib and cisplatin",[4],cancer-selective synergistic effects
same,synergy with the PARP inhibitor Rucaparib across cancer cell lines,[5],synergizes with the PARP inhibitor Rucaparib in many (but not all) cancer cell lines
